23 compounds from patent publication US20230416238A1, “N-[(1,3-BENZOXAZOL-2-YL)-HETEROCYCLE]AMIDE DERIVATIVES FOR THE TREATMENT AND PROPHYLAXIS OF HEPATITIS B VIRUS INFECTION” (Hoffmann-La Roche Inc., priority 2020, published 2023) can be followed below.

What all share (assay type): cell-based
Data set [1] is described as follows: Cytotoxicity in PHH natural infection assay (Cell Counting Kit-8). The settings on record: HBV-infected primary human hepatocytes, CCK8. How it is done:
(§1) Detailed procedures regarding primary human hepatocyte (PHH) HBV natural infection assay are described as below. One tube of frozen PHH (10 million cells) is thawed in 37° C. water bath and then transferred to 20 mL of PHH thawing medium (Sigma, InVitroGRO HT Medium, Cat. S03319) with gently mixing. The cells were then centrifuged at […] for 5 min, the supernatant was discarded and the tube was refilled with 25 mL of PHH plating medium (Sigma, InVitroGRO CP Medium, Cat. S03317). The tube was shaken very gently to re-suspend all cells, and then 50 μL of cells were transferred to each well 384-well collagen I coated plate with appropriate liquid handling equipment, e.g. Integra VIAFLO384 or Agilent Bravo. The cells were then cultured for 24 hours in a cell incubator. For HBV infection, after PHH attachment on the culture plate, the plating medium was removed and replenished with PHH culture medium containing HBV virus. The PHH culture medium was prepared with Dulbecco's Modified Eagle Medium (DMEM)/F12 (1:1 in volume ratio) containing 10% fetal bovine serum (Gibco, Cat. 10099141), 5 ng/mL human epidermal growth factor (Gibco, Cat. PHG0311L), 20 ng/mL dexamethasone (Sigma, Cat. D4902-100 mg), 250 ng/mL human recombinant insulin (Gibco, Cat. 41400045) and 100 U/mL penicillin. HBV virus at 200 genome equivalent (GE) per cell with 4% PEG8000 (Sigma, Cat. P1458) containing culture medium were added to the PHH culture medium for infection. The cells were then cultured for 24 hours in cell incubator. Then the cell culture supernatant was removed. The HBV-infected PHH were cultured with sandwich culture method with MEI culture medium containing 1% DMSO and 0.25 mg/mL matrix gel for 72 hours. The supernatant was then refreshed with PHH culture medium containing different concentrations of testing compounds for two times with 72-hour interval. At the end of treatment, the supernatant was collected for viral markers measurements, including HBsAg, HBeAg, HBV DNA and cytotoxicity. HBsAg and HBeAg were detected using alphalisa method using their specific antibodies. For HBV DNA detection, HBV DNA Quantitative Fluorescence Diagnostic Kit (Sansure Biotech Inc.) was used following the manufacture's protocol. Cytotoxicity was determined using Cell Counting Kit-8 (CCK8, Dojindo Molecular Technologies, Inc.).
On the technique in general: Formazan colour is commonly taken as a measure of viable cells.

For a further data set, the system named is HBeAg. Put plainly: PHH HBV natural infection assay, HBeAg (alphalisa). The note with it: Hepatitis B virus, Hepatocyte, read-out: HBeAg IC50. How it is done: as §1
(§2) The compounds of the present invention were tested for their capacity to inhibit HBsAg and HBeAg as described herein.

The next data set relates to HBsAg. Put plainly: PHH HBV natural infection assay, HBsAg (alphalisa). The note with it: Hepatitis B virus, Hepatocyte, read-out: HBsAg IC50. How it is done: as §1, §2

pIC50: −log10 of the molar value.

As for `NC(=O)c1ccc(C(=O)NCC2CCN(c3nc4cc(Cl)ccc4o3)CC2)o1` [Example 1, N2-[[1-(5-Chloro-1,3-benzoxazol-2-yl)-4-piperidyl]methyl]furan-2,5-dicarboxamide], the CC50 (as a rule, the concentration giving 50% cytotoxicity) at 144 h in data set [1] was above 10 µM. Further, the pIC50 (usually the negative decadic logarithm of the IC50, by convention in mol/L) in the data set with HBeAg was 5.15; with HBsAg it was 5.03.
In data set [1], `O=C(NCC1CCN(c2nc3cc(Cl)ccc3o2)CC1)c1ccc(C(F)(F)F)nc1` [Example 2, N-[[1-(5-chloro-1,3-benzoxazol-2-yl)-4-piperidyl]methyl]-6-(trifluoromethyl)pyridine-3-carboxamide] displayed a CC50 at 144 h above 10 µM. Besides, the pIC50 with HBeAg is 5.20; in the data set on HBsAg it was 5.09.
In the case of `O=C(NCC1CCN(c2nc3cc(Cl)ccc3o2)CC1)c1ccnc(S(=O)(=O)C2CC2)c1` [Example 3, N-[[1-(5-chloro-1,3-benzoxazol-2-yl)-4-piperidyl]methyl]-2-cyclopropylsulfonyl-pyridine-4-carboxamide], in data set [1], the CC50 at 144 h was above 10 µM. Further, the pIC50 in the data set with HBeAg is 5.20; in the data set with HBsAg, 5.11.
`CS(=O)(=O)c1cccc(C(=O)NCC2CCN(c3nc4cc(Cl)ccc4o3)CC2)c1` [Example 4, N-[[1-(5-chloro-1,3-benzoxazol-2-yl)-4-piperidyl]methyl]-3-methylsulfonyl-benzamide] returned a CC50 at 144 h in data set [1] above 10 µM. Also, the negative logarithm of the IC50 (pIC50) in the data set with HBeAg was 5.24; in the data set on HBsAg, 5.20.
Compound `CS(=O)(=O)c1cc(C(=O)NCC2CCN(c3nc4cc(Cl)ccc4o3)CC2)ccn1` [Example 5, N-[[1-(5-chloro-1,3-benzoxazol-2-yl)-4-piperidyl]methyl]-2-methylsulfonyl-pyridine-4-carboxamide] had a cytotoxic concentration (CC50) at 144 h in data set [1] above 10 µM. The pIC50 in the data set on HBeAg was 5.31; in the data set with HBsAg it was 5.33.
In the same order, the values of `NC(=O)c1cc(C(=O)NCC2CCN(c3nc4cc(Cl)ccc4o3)CC2)ccn1` [Example 6, N4-[[1-(5-chloro-1,3-benzoxazol-2-yl)-4-piperidyl]methyl]pyridine-2,4-dicarboxamide] are above 10 µM, 5.35 and 5.36.
Taken in the same sequence, the figures for `O=C(NCC1CCN(c2nc3cc(Cl)ccc3o2)CC1)c1ccc(C(F)(F)F)o1` [Example 7, N-[[1-(5-chloro-1,3-benzoxazol-2-yl)-4-piperidyl]methyl]-5-(trifluoromethyl)furan-2-carboxamide] were 96.7 µM, 5.46 and 5.42.
In data set [1], `NS(=O)(=O)c1ccc(C(=O)NCC2CCN(c3nc4cc(Cl)ccc4o3)CC2)o1` [Example 8, N-[[1-(5-chloro-1,3-benzoxazol-2-yl)-4-piperidyl]methyl]-5-sulfamoyl-furan-2-carboxamide] showed a half-maximal cytotoxic concentration (CC50) at 144 h above 10 µM. Moreover, the negative-log IC50 (pIC50) in the data set on HBeAg is 5.54; in the data set on HBsAg, 5.50.
On to `CS(=O)(=O)c1cncc(C(=O)NCC2CCN(c3nc4cc(Cl)ccc4o3)CC2)c1` [Example 9, N-[[1-(5-chloro-1,3-benzoxazol-2-yl)-4-piperidyl]methyl]-5-methylsulfonyl-pyridine-3-carboxamide], for which the cytotoxic concentration (CC50) at 144 h in data set [1] is above 10 µM. The pIC50 with HBeAg is 5.74; in the data set with HBsAg, 5.82.
In data set [1], `O=C(NCC1CCN(c2nc3cc(Cl)ccc3o2)CC1)C1CS(=O)(=O)C1` [Example 10, N-[[1-(5-chloro-1,3-benzoxazol-2-yl)-4-piperidyl]methyl]-1,1-dioxo-thietane-3-carboxamide] yielded a CC50 at 144 h above 100 µM. Further, the pIC50 with HBeAg is 4.98; with HBsAg it was 5.01.
For the compound `O=C(NCC1CCN(c2nc3cc(Cl)ccc3o2)C1)c1ccnc(S(=O)(=O)C2CC2)c1` (stereo not drawn) [Example 11, N-[[1-(5-chloro-1,3-benzoxazol-2-yl)pyrrolidin-3-yl]methyl]-2-cyclopropylsulfonyl-pyridine-4-carboxamide], in data set [1], the CC50 at 144 h is above 10 µM. Moreover, the negative logarithm of the IC50 (pIC50) with HBeAg is 5.11; in the data set with HBsAg, 5.04.
In data set [1], `O=C(NC1CCN(c2nc3cc(Cl)ccc3o2)CC1)c1ccc(C(F)(F)F)o1` [Example 12, N-[1-(5-chloro-1,3-benzoxazol-2-yl)-4-piperidyl]-5-(trifluoromethyl)furan-2-carboxamide] showed a CC50 at 144 h above 100 µM. Besides, the pIC50 is 5.26 in the data set with HBeAg and 5.34 in the data set on HBsAg.
The compound `CS(=O)(=O)N1CCC(C(=O)NCC2CCN(c3nc4cc(Cl)ccc4o3)CC2)C1` (stereo not drawn) [Example 13, N-[[1-(5-chloro-1,3-benzoxazol-2-yl)-4-piperidyl]methyl]-1-methylsulfonyl-pyrrolidine-3-carboxamide] gave a half-maximal cytotoxic concentration (CC50) at 144 h in data set [1] above 10 µM. The pIC50 was 5.07 in the data set with HBeAg and 5.03 in the data set with HBsAg.
`Cc1ccc(S(=O)(=O)N2CCC(C(=O)NCC3CCN(c4nc5cc(Cl)ccc5o4)CC3)C2)cc1` (stereo not drawn) [Example 14, N-[[1-(5-chloro-1,3-benzoxazol-2-yl)-4-piperidyl]methyl]-1-(p-tolylsulfonyl)pyrrolidine-3-carboxamide] displayed a CC50 at 144 h in data set [1] above 10 µM. The pIC50 in the data set with HBeAg was 5.38; in the data set with HBsAg, 5.42.
As to `CS(=O)(=O)N1CCC(C(=O)NCC2CCN(c3nc4cc(Cl)ccc4o3)CC2)CC1` [Example 15, N-[[1-(5-chloro-1,3-benzoxazol-2-yl)-4-piperidyl]methyl]-1-methylsulfonyl-piperidine-4-carboxamide], in data set [1], the half-maximal cytotoxic concentration (CC50) at 144 h was above 10 µM. In addition, the pIC50 in the data set with HBeAg is 5.44; in the data set with HBsAg, 5.40.
Regarding `Cc1ccc(S(=O)(=O)N2CCC(C(=O)NCC3CCN(c4nc5cc(Cl)ccc5o4)CC3)CC2)cc1` [Example 16, N-[[1-(5-chloro-1,3-benzoxazol-2-yl)-4-piperidyl]methyl]-1-(p-tolylsulfonyl)piperidine-4-carboxamide], the half-maximal cytotoxic concentration (CC50) at 144 h in data set [1] was above 10 µM. Moreover, the values for the pIC50 in the data set with HBeAg and in the data set with HBsAg were 5.44 and 5.43, respectively.
For `CS(=O)(=O)N1CC(CC(=O)NCC2CCN(c3nc4cc(Cl)ccc4o3)CC2)C1` [Example 17, N-[[1-(5-chloro-1,3-benzoxazol-2-yl)-4-piperidyl]methyl]-2-(1-methylsulfonylazetidin-3-yl)acetamide], the half-maximal cytotoxic concentration (CC50) at 144 h in data set [1] is above 10 µM. Also, the pIC50 with HBeAg was below 5.00; in the data set on HBsAg it was 5.08.
In data set [1], `Cc1ccc(S(=O)(=O)N2CCC(CC(=O)NCC3CCN(c4nc5cc(Cl)ccc5o4)CC3)C2)cc1` (stereo not drawn) [Example 18, N-[[1-(5-chloro-1,3-benzoxazol-2-yl)-4-piperidyl]methyl]-2-[1-(p-tolylsulfonyl)pyrrolidin-3-yl]acetamide] yielded a 50% cytotoxic concentration (CC50) at 144 h above 10 µM. The negative-log IC50 (pIC50) is 5.42 with HBeAg and 5.41 in the data set on HBsAg.
`CS(=O)(=O)N1CCC(CC(=O)NCC2CCN(c3nc4cc(Cl)ccc4o3)CC2)CC1` [Example 19, N-[[1-(5-chloro-1,3-benzoxazol-2-yl)-4-piperidyl]methyl]-2-(1-methylsulfonyl-4-piperidyl)acetamide]: the CC50 at 144 h in data set [1] is above 10 µM. Besides, the negative logarithm of the IC50 (pIC50) in the data set on HBeAg is 5.43; with HBsAg, 5.11.
Consider `Cc1ccc(S(=O)(=O)N2CCC(CC(=O)NCC3CCN(c4nc5cc(Cl)ccc5o4)CC3)CC2)cc1` [Example 20, N-[[1-(5-chloro-1,3-benzoxazol-2-yl)-4-piperidyl]methyl]-2-[1-(p-tolylsulfonyl)-4-piperidyl]acetamide], for which the cytotoxic concentration (CC50) at 144 h in data set [1] is above 10 µM. Moreover, the figures for the pIC50 in the data set with HBeAg and with HBsAg were 5.39 and 5.41, respectively.
In the same order, the values of `CCOC(=O)NC1CC2(C1)CN(c1nc3cc(Cl)ccc3o1)C2` [Example 21, Ethyl N-[2-(5-chloro-1,3-benzoxazol-2-yl)-2-azaspiro[3.3]heptan-6-yl]carbamate] are above 100 µM, 5.28 and 5.15.
As to `CC(C)COC(=O)NC1CC2(C1)CN(c1nc3cc(Cl)ccc3o1)C2` [Example 22, Isobutyl N-[2-(5-chloro-1,3-benzoxazol-2-yl)-2-azaspiro[3.3]heptan-6-yl]carbamate], half-maximal cytotoxicity in data set [1] (CC50 at 144 h) was put at 82.7 µM. In addition, the negative-log IC50 (pIC50) with HBeAg is 5.32; in the data set with HBsAg, 5.23.
In data set [1], `CN(C)C(=O)NC1CC2(C1)CN(c1nc3cc(Cl)ccc3o1)C2` [Example 23, 3-[2-(5-Chloro-1,3-benzoxazol-2-yl)-2-azaspiro[3.3]heptan-6-yl]-1,1-dimethyl-urea] yielded a CC50 at 144 h above 100 µM. In addition, the pIC50 was 5.18 in the data set with HBeAg and 5.12 in the data set with HBsAg.
